Source: patent publication US10487093B2, “Heterocyclic compounds, in particular 2-oxo-4,4,5,5,6,6,7,7-octahydrobenzoxazole derivatives, and their use as antibacterial compounds” (priority 2016, dated 2019)
Where two headings read alike, the source gives them in different places.

Experiments:
Format in all cases: cell-based
[1] = test system: strains of Prevotella melaninogenica; assay: MIC against anaerobes, agar dilution (CLSI), clinical isolates
[2] = test system: strains of Propionibacterium acnes; assay: as above; details: Cutibacterium acnes
[3] = test system: Bacteroides fragilis ATCC 25285; assay: MIC against anaerobes, agar dilution (CLSI), reference strain; details: ATCC25285, agar dilution, Brucella blood agar, 35° C., 48 h, anaerobic conditions, read-out: MIC, B. fragilis ATCC 25285
[4] = test system: strains of Bacteroides fragilis; assay: MIC against anaerobes, agar dilution (CLSI), clinical isolates
[5] = test system: strains of Prevotella bivia; assay: as above
[6] = test system: Haemophilus influenzae ATCC 49247; assay: MIC, broth microdilution (CLSI) versus planktonic bacteria; details: ATCC49247; Haemophilus influenzae ATCC 49247; 16-20 h; mode of three independent experiments; read-out: MIC, Hi ATCC 49247
[7] = test system: Bacteroides thetaiotaomicron ATCC 29741; assay: microbe, parasite or virus in culture; details: ATCC29741, agar dilution, Brucella blood agar, 35° C., 48 h, anaerobic conditions, read-out: MIC, B. thetaiotaomicron ATCC
[8] = test system: strains of Parvimonas micra; assay: MIC against anaerobes, agar dilution (CLSI), clinical isolates
[9] = test system: Staphylococcus aureus ATCC 29213; assay: MIC, broth microdilution (CLSI) versus planktonic bacteria; details: ATCC29213; Staphylococcus aureus ATCC 29213; 16-20 h; mode of three independent experiments; read-out: MIC, Sa ATCC 29213
[10] = test system: strains of Bacteroides thetaiotaomicron; assay: microbe, parasite or virus in culture
[11] = test system: strains of Finegoldia magna; assay: MIC against anaerobes, agar dilution (CLSI), clinical isolates; details: Finegoldia magna, read-out: MIC
[12] = test system: strains of Clostridium perfringens; assay: microbe, parasite or virus in culture
[13] = test system: Clostridium difficile ATCC 700057; assay: MIC against anaerobes, agar dilution (CLSI), reference strain; details: Clostridioides difficile, ATCC700057, 48 h, read-out: MIC, C. difficile ATCC 700057
[14] = test system: strains of Peptoniphilus harei; assay: MIC against anaerobes, agar dilution (CLSI), clinical isolates; details: Peptoniphilus harei, read-out: MIC
[15] = test system: strains of Peptostreptococcus anaerobius; assay: as above

Measured: MIC

COc1ccc2ncc(=O)n(CCN[C@@H]3CC[C@@H]4[C@@H](C3)OC(=O)N4c3ccc4c(n3)NC(=O)CO4)c2c1 [Compound 21, 1-(2-{[(3aR,6R,7aR)-2-oxo-3-{3-oxo-2H,3H,4H-pyrido[3,2-b][1,4]oxazin-6-yl}-octahydro-1,3-benzoxazol-6-yl]amino}ethyl)-7-methoxy-1,2-dihydroquinoxalin-2-one]
1 to 4 µg/mL: [4]; Bacteroides fragilis strain 1 | [8]; Parvimonas micra strain 4 | [10]; Bacteroides thetaiotaomicron strain 11, read-out: MIC
< 1 µg/mL: [1]; Prevotella melaninogenica strain 1 | [1]; Prevotella melaninogenica strain 2 | [1]; Prevotella melaninogenica strain 3 | [1]; Prevotella melaninogenica strain 4 | [1]; Prevotella melaninogenica strain 5 | [1]; Prevotella melaninogenica strain 6 | [1]; Prevotella melaninogenica strain 7 | [1]; Prevotella melaninogenica strain 8 | [1]; Prevotella melaninogenica strain 9 | [1]; Prevotella melaninogenica strain 10 | [1]; Prevotella melaninogenica strain 11 | [2]; Propionibacterium acnes strain 1 | [2]; Propionibacterium acnes strain 2 | [2]; Propionibacterium acnes strain 3 | [2]; Propionibacterium acnes strain 4 | [2]; Propionibacterium acnes strain 5 | [2]; Propionibacterium acnes strain 6 | [2]; Propionibacterium acnes strain 7 | [2]; Propionibacterium acnes strain 8 | [2]; Propionibacterium acnes strain 9 | [2]; Propionibacterium acnes strain 10 | [2]; Propionibacterium acnes strain 11 | [2]; Propionibacterium acnes strain 12 | [3] | [4]; Bacteroides fragilis strain 2 | [4]; Bacteroides fragilis strain 3 | [4]; Bacteroides fragilis strain 4 | [4]; Bacteroides fragilis strain 5 | [4]; Bacteroides fragilis strain 6 | [4]; Bacteroides fragilis strain 7 | [4]; Bacteroides fragilis strain 8 | [4]; Bacteroides fragilis strain 9 | [4]; Bacteroides fragilis strain 10 | [4]; Bacteroides fragilis strain 11 | [4]; Bacteroides fragilis strain 12 | [5]; Prevotella bivia strain 1 | [5]; Prevotella bivia strain 2 | [5]; Prevotella bivia strain 3 | [5]; Prevotella bivia strain 4 | [5]; Prevotella bivia strain 5 | [5]; Prevotella bivia strain 6 | [5]; Prevotella bivia strain 7 | [5]; Prevotella bivia strain 8 | [5]; Prevotella bivia strain 9 | [5]; Prevotella bivia strain 10 | [6] | [7] | [8]; Parvimonas micra strain 1 | [8]; Parvimonas micra strain 2 | [8]; Parvimonas micra strain 3 | [8]; Parvimonas micra strain 5 | [8]; Parvimonas micra strain 6 | [8]; Parvimonas micra strain 7 | [8]; Parvimonas micra strain 8 | [8]; Parvimonas micra strain 9 | [8]; Parvimonas micra strain 10 | [8]; Parvimonas micra strain 11 | [8]; Parvimonas micra strain 12 | [9] | [10]; Bacteroides thetaiotaomicron strain 1, read-out: MIC | [10]; Bacteroides thetaiotaomicron strain 2, read-out: MIC | [10]; Bacteroides thetaiotaomicron strain 3, read-out: MIC | [10]; Bacteroides thetaiotaomicron strain 4, read-out: MIC | [10]; Bacteroides thetaiotaomicron strain 5, read-out: MIC | [10]; Bacteroides thetaiotaomicron strain 6, read-out: MIC | [10]; Bacteroides thetaiotaomicron strain 7, read-out: MIC | [10]; Bacteroides thetaiotaomicron strain 8, read-out: MIC | [10]; Bacteroides thetaiotaomicron strain 9, read-out: MIC | [10]; Bacteroides thetaiotaomicron strain 10, read-out: MIC | [11]; Finegoldia magna strain 1 | [11]; Finegoldia magna strain 2 | [11]; Finegoldia magna strain 3 | [11]; Finegoldia magna strain 4 | [11]; Finegoldia magna strain 5 | [11]; Finegoldia magna strain 6 | [11]; Finegoldia magna strain 7 | [11]; Finegoldia magna strain 8 | [11]; Finegoldia magna strain 9 | [11]; Finegoldia magna strain 10 | [11]; Finegoldia magna strain 11 | [11]; Finegoldia magna strain 12 | [12]; Clostridium perfringens strain 1 | [12]; Clostridium perfringens strain 2 | [12]; Clostridium perfringens strain 3 | [12]; Clostridium perfringens strain 4 | [12]; Clostridium perfringens strain 5 | [12]; Clostridium perfringens strain 6 | [12]; Clostridium perfringens strain 7 | [12]; Clostridium perfringens strain 8 | [12]; Clostridium perfringens strain 9 | [12]; Clostridium perfringens strain 10 | [12]; Clostridium perfringens strain 11 | [13] | [14]; Peptoniphilus harei strain 1 | [14]; Peptoniphilus harei strain 2 | [14]; Peptoniphilus harei strain 3 | [14]; Peptoniphilus harei strain 4 | [14]; Peptoniphilus harei strain 5 | [14]; Peptoniphilus harei strain 6 | [14]; Peptoniphilus harei strain 7 | [14]; Peptoniphilus harei strain 8 | [14]; Peptoniphilus harei strain 9 | [14]; Peptoniphilus harei strain 10 | [14]; Peptoniphilus harei strain 11 | [14]; Peptoniphilus harei strain 12 | [15]; Peptostreptococcus anaerobius strain 1 | [15]; Peptostreptococcus anaerobius strain 2 | [15]; Peptostreptococcus anaerobius strain 3 | [15]; Peptostreptococcus anaerobius strain 4 | [15]; Peptostreptococcus anaerobius strain 5 | [15]; Peptostreptococcus anaerobius strain 6 | [15]; Peptostreptococcus anaerobius strain 7 | [15]; Peptostreptococcus anaerobius strain 8 | [15]; Peptostreptococcus anaerobius strain 9 | [15]; Peptostreptococcus anaerobius strain 10
